Legend:
[1] = compound: O=C(Nc1ccc2[nH]nc(-c3ccncc3)c2c1)[C@@H]1CCN(CC(=O)N2CCN(c3ccc(-c4ncccn4)cc3)CC2)C1; conditions: max 5 µM
How it was run: (§1)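 Plates with 1536 wells received cancer cell lines in 7.5 μl of DMEM/F12 or RPMI containing 10% FBS. After 24 hours at 37°C and 5% CO2, cells were dosed for 72 hours with final DMSO typically 0.2%, and viability was read by CellTiter-Glo 2.0 luminescence scaled between blank-well and DMSO-well means. The single-agent IC50 was taken from a logistic fit of the dose responses made with a non-linear mixed effects model, that logistic curve having two parameters.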

AZD1775 = compound: C=CCn1c(=O)c2cnc(Nc3ccc(N4CCN(C)CC4)cc3)nc2n1-c1cccc(C(C)(C)O)n1 [AZD1775]; conditions: max 3 µM
How it was run: as §1

Alisertib = compound: COc1cc(Nc2ncc3c(n2)-c2ccc(Cl)cc2C(c2c(F)cccc2OC)=NC3)ccc1C(=O)O [Alisertib]; conditions: max 10 µM
How it was run: as §1

AZD4320 = compound: CN(CC[C@H](CSC1=CC=CC=C1)NC2=C(C=C(C=C2)S(=O)(=O)NC(=O)C3=CC=C(C=C3)N4CCC(CC4)[C@H](C5=CC=CC=C5C6=CC=C(C=C6)Cl)O)S(=O)(=O)C(F)(F)F)CCO [AZD4320]; conditions: max 1 µM
How it was run: as §1

Paclitaxel = compound: CC(=O)O[C@H]1C(=O)[C@@]2(C)[C@H]([C@H](OC(=O)c3ccccc3)[C@]3(O)C[C@H](OC(=O)[C@H](O)[C@@H](NC(=O)c4ccccc4)c4ccccc4)C(C)=C1C3(C)C)[C@]1(OC(C)=O)CO[C@@H]1C[C@@H]2O [Paclitaxel]; conditions: max 3 µM
How it was run: as §1

AZD6738 = compound: C[C@@H]1COCCN1C2=NC(=NC(=C2)C3(CC3)[S@](=N)(=O)C)C4=C5C=CNC5=NC=C4 [AZD6738]; conditions: max 10 µM
How it was run: as §1

Crizotinib = compound: C[C@@H](Oc1cc(-c2cnn(C3CCNCC3)c2)cnc1N)c1c(Cl)ccc(F)c1Cl [Crizotinib]; conditions: max 10 µM
How it was run: as §1

AZD1390 = compound: CC(C)n1c(=O)n(C)c2cnc3cc(F)c(-c4ccc(OCCCN5CCCCC5)nc4)cc3c21 [AZD1390]; conditions: max 0.3 µM
How it was run: as §1

Etoposide = compound: COc1cc([C@@H]2c3cc4c(cc3[C@@H](O[C@@H]3O[C@@H]5CO[C@@H](C)O[C@H]5[C@H](O)[C@H]3O)[C@H]3COC(=O)[C@H]23)OCO4)cc(OC)c1O [Etoposide]; conditions: max 10 µM
How it was run: as §1

Olaparib = compound: O=C(c1cc(Cc2n[nH]c(=O)c3ccccc23)ccc1F)N1CCN(C(=O)C2CC2)CC1 [Olaparib]; conditions: max 10 µM
How it was run: as §1

Prexasertib = compound: COc1cccc(OCCCN)c1-c1cc(Nc2cnc(C#N)cn2)n[nH]1 [Prexasertib]; conditions: max 1 µM
How it was run: as §1

Palbociclib = compound: CC(=O)c1c(C)c2cnc(Nc3ccc(N4CCNCC4)cn3)nc2n(C2CCCC2)c1=O [Palbociclib]; conditions: max 10 µM
How it was run: as §1

Savolitinib = compound: C[C@@H](c1ccc2nccn2c1)n1nnc2ncc(-c3cnn(C)c3)nc21 [Savolitinib]; conditions: max 1 µM
How it was run: as §1

SG3199 = compound: CC1=CN2[C@@H](C1)C=NC3=CC(=C(C=C3C2=O)OC)OCCCCCOC4=C(C=C5C(=C4)N=C[C@@H]6CC(=CN6C5=O)C)OC [SG3199]; conditions: max 0.001 µM
How it was run: as §1

Carboplatin = compound: C1CC(C1)(C(=O)[O-])C(=O)[O-].N.N.[Pt+2] [Carboplatin]; conditions: max 10 µM
How it was run: as §1

MK-2206 = compound: NC1(c2ccc(-c3nc4ccn5c(=O)[nH]nc5c4cc3-c3ccccc3)cc2)CCC1 [MK-2206]; conditions: max 10 µM
How it was run: as §1

5-Fluorouracil = compound: O=c1[nH]cc(F)c(=O)[nH]1 [5-Fluorouracil]; conditions: max 20 µM
How it was run: as §1

AZD7648 = compound: Cc1cc2ncnn2cc1Nc1ncc2c(n1)n(C1CCOCC1)c(=O)n2C [AZD7648]; conditions: max 10 µM
How it was run: as §1

SN-38 = compound: CCc1c2c(nc3ccc(O)cc13)-c1cc3c(c(=O)n1C2)COC(=O)[C@]3(O)CC [SN-38]; conditions: max 0.3 µM
How it was run: as §1

AZD2811 = compound: CCN(CCO)CCCOc1ccc2c(Nc3cc(CC(=O)Nc4cccc(F)c4)[nH]n3)ncnc2c1 [AZD2811]; conditions: max 1 µM
How it was run: as §1

Trametinib = compound: CC(=O)Nc1cccc(-n2c(=O)n(C3CC3)c(=O)c3c(Nc4ccc(I)cc4F)n(C)c(=O)c(C)c32)c1 [Trametinib]; conditions: max 1 µM
How it was run: as §1

Gefitinib = compound: COc1cc2ncnc(Nc3ccc(F)c(Cl)c3)c2cc1OCCCN1CCOCC1 [Gefitinib]; conditions: max 10 µM
How it was run: as §1

Gemcitabine = compound: Nc1ccn([C@@H]2O[C@H](CO)[C@@H](O)C2(F)F)c(=O)n1 [Gemcitabine]; conditions: max 0.3 µM
How it was run: as §1

Selumetinib = compound: Cn1cnc2c(F)c(Nc3ccc(Br)cc3Cl)c(C(=O)NOCCO)cc21 [Selumetinib]; conditions: max 10 µM
How it was run: as §1

AZD8186 = compound: C[C@@H](Nc1cc(F)cc(F)c1)c1cc(C(=O)N(C)C)cc2c(=O)cc(N3CCOCC3)oc12 [AZD8186]; conditions: max 10 µM
How it was run: as §1

AZD5991 = compound: Cc1c2c(nn1C)CSCc1cc(n(C)n1)CSc1cc(c3ccccc3c1)OCCCc1c(C(=O)O)n(C)c3c-2c(Cl)ccc13 [AZD5991]; conditions: max 1 µM
How it was run: as §1

Taselisib = compound: Cc1nc(-c2cn3c(n2)-c2ccc(-c4cnn(C(C)(C)C(N)=O)c4)cc2OCC3)n(C(C)C)n1 [Taselisib]; conditions: max 10 µM
How it was run: as §1

Lapatinib = compound: CS(=O)(=O)CCNCc1ccc(-c2ccc3ncnc(Nc4ccc(OCc5cccc(F)c5)c(Cl)c4)c3c2)o1 [Lapatinib]; conditions: max 10 µM
How it was run: as §1

AZD5153 = compound: COc1nnc2ccc(N3CCC(c4ccc(OCCN5CCN(C)C(=O)[C@H]5C)cc4)CC3)nn12 [AZD5153]; conditions: max 1 µM
How it was run: as §1

Venetoclax = compound: CC1(C)CCC(CN2CCN(c3ccc(C(=O)NS(=O)(=O)c4ccc(NCC5CCOCC5)c([N+](=O)[O-])c4)c(Oc4cnc5[nH]ccc5c4)c3)CC2)=C(c2ccc(Cl)cc2)C1 [Venetoclax]; conditions: max 1 µM
How it was run: as §1

SRA737 = compound: N#Cc1cnc(Nc2cc(NC[C@H]3CNCCO3)c(C(F)(F)F)cn2)cn1 [SRA737]; conditions: max 10 µM
How it was run: as §1

AZD0156 = compound: CN(C)CCCOc1ccc(-c2ccc3ncc4c(c3c2)n(C2CCOCC2)c(=O)n4C)cn1 [AZD0156]; conditions: max 3 µM
How it was run: as §1

AZD5363 = compound: C1CN(CCC1(C(=O)N[C@@H](CCO)C2=CC=C(C=C2)Cl)N)C3=NC=NC4=C3C=CN4 [AZD5363]; conditions: max 10 µM
How it was run: as §1

Doxorubicin = compound: COc1cccc2c1C(=O)c1c(O)c3c(c(O)c1C2=O)C[C@@](O)(C(=O)CO)C[C@@H]3O[C@H]1C[C@H](N)[C@H](O)[C@H](C)O1 [Doxorubicin]; conditions: max 1 µM
How it was run: as §1

Dasatinib = compound: CC1=C(C(=CC=C1)Cl)NC(=O)C2=CN=C(S2)NC3=CC(=NC(=N3)C)N4CCN(CC4)CCO [Dasatinib]; conditions: max 2 µM
How it was run: as §1

Row | Cell Line | IC50, cell viability 72 h [1] | IC50, cell viability 72 h (AZD1775) | IC50, cell viability 72 h (Alisertib) | IC50, cell viability 72 h (AZD4320) | IC50, cell viability 72 h (Paclitaxel) | IC50, cell viability 72 h (AZD6738) | IC50, cell viability 72 h (Crizotinib) | IC50, cell viability 72 h (AZD1390) | IC50, cell viability 72 h (Etoposide) | IC50, cell viability 72 h (Olaparib) | IC50, cell viability 72 h (Prexasertib) | IC50, cell viability 72 h (Palbociclib) | IC50, cell viability 72 h (Savolitinib) | IC50, cell viability 72 h (SG3199) | IC50, cell viability 72 h (Carboplatin) | IC50, cell viability 72 h (MK-2206) | IC50, cell viability 72 h (5-Fluorouracil) | IC50, cell viability 72 h (AZD7648) | IC50, cell viability 72 h (SN-38) | IC50, cell viability 72 h (AZD2811) | IC50, cell viability 72 h (Trametinib) | IC50, cell viability 72 h (Gefitinib) | IC50, cell viability 72 h (Gemcitabine) | IC50, cell viability 72 h (Selumetinib) | IC50, cell viability 72 h (AZD8186) | IC50, cell viability 72 h (AZD5991) | IC50, cell viability 72 h (Taselisib) | IC50, cell viability 72 h (Lapatinib) | IC50, cell viability 72 h (AZD5153) | IC50, cell viability 72 h (Venetoclax) | IC50, cell viability 72 h (SRA737) | IC50, cell viability 72 h (AZD0156) | IC50, cell viability 72 h (AZD5363) | IC50, cell viability 72 h (Doxorubicin) | IC50, cell viability 72 h (Dasatinib)
1 | RKO (Colorectal Carcinoma) | 0.797 µM | 0.787 µM | 7.23 µM | > 1 µM | 0.00391 µM | 2.04 µM | 9.5 µM | > 0.3 µM | 6.79 µM | > 10 µM | 0.0354 µM | > 10 µM | > 1 µM | > 0.001 µM | > 10 µM | > 10 µM | 8.59 µM | > 10 µM | 0.0165 µM | > 1 µM | 0.0753 µM | > 10 µM | 0.00984 µM | 6.52 µM | > 10 µM | > 1 µM | 2.95 µM | > 10 µM | 0.0672 µM | > 1 µM | 7.18 µM | > 3 µM | 5.24 µM | 0.24 µM | > 2 µM
2 | Mewo (Melanoma) | 3.57 µM | 1.42 µM | > 10 µM | > 1 µM | 0.653 µM | > 10 µM | > 10 µM | > 0.3 µM | > 10 µM | > 10 µM | 0.413 µM | > 10 µM | > 1 µM | > 0.001 µM | > 10 µM | > 10 µM | > 20 µM | > 10 µM | > 0.3 µM | > 1 µM | 0.569 µM | > 10 µM | > 0.3 µM | > 10 µM | > 10 µM | > 1 µM | > 10 µM | > 10 µM | > 1 µM | > 1 µM | > 10 µM | > 3 µM | > 10 µM | > 1 µM | > 2 µM
3 | NCI-H2795 (Mesothelioma) | 0.658 µM | > 3 µM | 1.3 µM | > 1 µM | 0.0853 µM | 9.01 µM | 7.78 µM | > 0.3 µM | 3.82 µM | > 10 µM | 0.146 µM | > 10 µM | > 1 µM | > 0.001 µM | > 10 µM | > 10 µM | 19.6 µM | > 10 µM | 0.0169 µM | > 1 µM | 0.0384 µM | > 10 µM | 0.0258 µM | 3.14 µM | > 10 µM | 0.974 µM | 4.73 µM | > 10 µM | 0.84 µM | > 1 µM | > 10 µM | > 3 µM | > 10 µM | 0.715 µM | 0.578 µM
4 | SW1116 (Colorectal Carcinoma) | > 5 µM | > 3 µM | > 10 µM | > 1 µM | 2.74 µM | > 10 µM | > 10 µM | > 0.3 µM | > 10 µM | > 10 µM | 0.824 µM | > 10 µM | > 1 µM | > 0.001 µM | > 10 µM | > 10 µM | > 20 µM | > 10 µM | > 0.3 µM | > 1 µM | 0.242 µM | > 10 µM | > 0.3 µM | > 10 µM | > 10 µM | > 1 µM | > 10 µM | > 10 µM | > 1 µM | > 1 µM | > 10 µM | > 3 µM | > 10 µM | > 1 µM | > 2 µM
5 | CAPAN-1 (Pancreatic Carcinoma) | 2.79 µM | 1.23 µM | > 10 µM | > 1 µM | 0.188 µM | > 10 µM | > 10 µM | > 0.3 µM | > 10 µM | > 10 µM | 0.485 µM | > 10 µM | > 1 µM | > 0.001 µM | > 10 µM | > 10 µM | > 20 µM | > 10 µM | 0.0388 µM | > 1 µM | 0.349 µM | > 10 µM | 0.13 µM | > 10 µM | > 10 µM | > 1 µM | > 10 µM | > 10 µM | > 1 µM | > 1 µM | > 10 µM | > 3 µM | > 10 µM | > 1 µM | > 2 µM

— the supplement of paper PMC11061612
